Species on record: Rattus norvegicus
Test: DrugMatrix - Regimen: Daily Repeat
Format: toxicity, organism-based, Sprague-Dawley
Set-up: regimen Daily Repeat, gender Male, age 6-8 weeks
Details: in vivo, po, route oral GAVAGE, vehicle .5 % CMC; for CREATINE PHOSPHOKINASE / CREATININE / GLUCOSE / LACTATE DEHYDROGENASE / LIPASE / PHOSPHORUS / POTASSIUM / SODIUM / TOTAL BILIRUBIN / TOTAL PROTEIN / URIC ACID / ALANINE AMINOTRANSFERASE / ALBUMIN / ALKALINE PHOSPHATASE / ASPARTATE AMINOTRANSFERASE / BLOOD UREA NITROGEN / CHLORIDE / CHOLESTEROL: tissue Plasma; for ABSOLUTE BASOPHIL / ABSOLUTE EOSINOPHIL / ABSOLUTE LYMPHOCYTE / ABSOLUTE MONOCYTE / ABSOLUTE SEGMENTED NEUTROPHIL / BASOPHIL / EOSINOPHIL / ERYTHROCYTE COUNT / HEMATOCRIT / HEMOGLOBIN / LEUKOCYTE COUNT / LYMPHOCYTE / MEAN CORPUSCULAR HEMOGLOBIN / MEAN CORPUSCULAR HEMOGLOBIN CONCENTRATION / MEAN CORPUSCULAR VOLUME / MONOCYTE / NEUTROPHIL / PLATELET COUNT: tissue Blood
[1] = 0 mg/kg, 2184 h, dose level Control, time 91 day
[2] = 0 mg/kg, […], dose level Control, time 28 day
[3] = 80 mg/kg, 120 h, dose level Low, time 5 day
[4] = 80 mg/kg, 2184 h, dose level Low, time 91 day

Which “CREATINE PHOSPHOKINASE” value [1] does the source give for `O=c1cc(-c2ccccc2)oc2ccc3ccccc3c12` [BETA-NAPHTHOFLAVONE] here?
The value was 91.22 u/L.

What about the CREATININE [1] of the same compound?
Its CREATININE is 0.61 mg/dL.

What about the GLUCOSE [1] of the same compound?
The GLUCOSE was 142.33 mg/dL.

And the “LACTATE DEHYDROGENASE” value [1]?
Its value is 81.67 u/L.

What about the LIPASE [1] of the same compound?
The LIPASE was 13 u/L.

And the PHOSPHORUS [1]?
The PHOSPHORUS was 7.54 mg/dL.

And the POTASSIUM [1]?
The POTASSIUM was 6.27 MEQ/L.

What about the SODIUM [1] of the same compound?
The SODIUM was 149.89 MEQ/L.

What about the “TOTAL BILIRUBIN” value [1] of the same compound?
The value was 0.19 mg/dL.

What about the “TOTAL PROTEIN” value [1] of the same compound?
Its value is 7.12 G/DL.

And the “URIC ACID” value [1]?
The value was 0.97 mg/dL.

What about the ABSOLUTE BASOPHIL [2] of the same compound?
Its ABSOLUTE BASOPHIL is 150 cells/µL.

What about the ABSOLUTE EOSINOPHIL [2] of the same compound?
The ABSOLUTE EOSINOPHIL was 54 cells/µL.

What about the ABSOLUTE LYMPHOCYTE [2] of the same compound?
Its ABSOLUTE LYMPHOCYTE is 8890 cells/µL.

What about the ABSOLUTE MONOCYTE [2] of the same compound?
Its ABSOLUTE MONOCYTE is 190 cells/µL.

What about the ABSOLUTE SEGMENTED NEUTROPHIL [2] of the same compound?
Its ABSOLUTE SEGMENTED NEUTROPHIL is 2250 cells/µL.

What about the BASOPHIL [2] of the same compound?
Its BASOPHIL is 1.26%.

And the EOSINOPHIL [2]?
Its EOSINOPHIL is 0.46%.

What about the “ERYTHROCYTE COUNT” value [2] of the same compound?
The value was 8.34 x10E6/uL.

What about the HEMATOCRIT [2] of the same compound?
Its HEMATOCRIT is 48.66%.

And the HEMOGLOBIN [2]?
The HEMOGLOBIN was 16.04 G/DL.

What about the “LEUKOCYTE COUNT” value [2] of the same compound?
Its value is 11.58 x10E3/uL.

What about the LYMPHOCYTE [2] of the same compound?
Its LYMPHOCYTE is 76.74%.

What about the “MEAN CORPUSCULAR HEMOGLOBIN” value [2] of the same compound?
The value was 19.2 pg.

And the “MEAN CORPUSCULAR HEMOGLOBIN CONCENTRATION” value [2]?
Its value is 32.92 G/DL.

And the “MEAN CORPUSCULAR VOLUME” value [2]?
The value was 58.32 fL.

What about the MONOCYTE [2] of the same compound?
The MONOCYTE was 1.76%.

What about the NEUTROPHIL [2] of the same compound?
Its NEUTROPHIL is 19.44%.

And the “PLATELET COUNT” value [2]?
The value was 1282.6 x10E3/uL.

And the “ALANINE AMINOTRANSFERASE” value [2]?
Its value is 27 u/L.

And the ALBUMIN [2]?
Its ALBUMIN is 3.68 G/DL.

And the “ALKALINE PHOSPHATASE” value [2]?
Its value is 146.2 u/L.

What about the “ASPARTATE AMINOTRANSFERASE” value [2] of the same compound?
The value was 66.6 u/L.

And the “BLOOD UREA NITROGEN” value [2]?
Its value is 12.4 mg/dL.

What about the CHLORIDE [2] of the same compound?
The CHLORIDE was 104.6 MEQ/L.

And the CHOLESTEROL [2]?
The CHOLESTEROL was 59.6 mg/dL.

And the “CREATINE PHOSPHOKINASE” value [2]?
Its value is 121.8 u/L.

And the CREATININE [2]?
The CREATININE was 0.6 mg/dL.

What about the GLUCOSE [2] of the same compound?
The GLUCOSE was 143 mg/dL.

And the “LACTATE DEHYDROGENASE” value [2]?
The value was 87.8 u/L.

What about the LIPASE [2] of the same compound?
The LIPASE was 17.4 u/L.

What about the PHOSPHORUS [2] of the same compound?
The PHOSPHORUS was 8.68 mg/dL.

And the POTASSIUM [2]?
The POTASSIUM was 6.02 MEQ/L.

What about the SODIUM [2] of the same compound?
Its SODIUM is 152.8 MEQ/L.

What about the “TOTAL BILIRUBIN” value [2] of the same compound?
The value was 0.26 mg/dL.

And the “TOTAL PROTEIN” value [2]?
The value was 6.92 G/DL.

And the “URIC ACID” value [2]?
The value was 0.52 mg/dL.

What about the ABSOLUTE BASOPHIL [3] of the same compound?
The ABSOLUTE BASOPHIL was 80 cells/µL.

And the ABSOLUTE EOSINOPHIL [3]?
The ABSOLUTE EOSINOPHIL was 62 cells/µL.

And the ABSOLUTE LYMPHOCYTE [3]?
Its ABSOLUTE LYMPHOCYTE is 9510 cells/µL.

And the ABSOLUTE MONOCYTE [3]?
The ABSOLUTE MONOCYTE was 180 cells/µL.

What about the ABSOLUTE SEGMENTED NEUTROPHIL [3] of the same compound?
The ABSOLUTE SEGMENTED NEUTROPHIL was 1430 cells/µL.

What about the BASOPHIL [3] of the same compound?
Its BASOPHIL is 0.74%.

And the EOSINOPHIL [3]?
The EOSINOPHIL was 0.56%.

And the “ERYTHROCYTE COUNT” value [3]?
The value was 7.55 x10E6/uL.

And the HEMATOCRIT [3]?
The HEMATOCRIT was 45.54%.

What about the HEMOGLOBIN [3] of the same compound?
The HEMOGLOBIN was 15.6 G/DL.

And the “LEUKOCYTE COUNT” value [3]?
Its value is 11.31 x10E3/uL.

What about the LYMPHOCYTE [3] of the same compound?
The LYMPHOCYTE was 84.24%.

And the “MEAN CORPUSCULAR HEMOGLOBIN” value [3]?
Its value is 20.68 pg.

And the “MEAN CORPUSCULAR HEMOGLOBIN CONCENTRATION” value [3]?
The value was 34.26 G/DL.

What about the “MEAN CORPUSCULAR VOLUME” value [3] of the same compound?
Its value is 60.36 fL.

What about the MONOCYTE [3] of the same compound?
The MONOCYTE was 1.58%.

What about the NEUTROPHIL [3] of the same compound?
Its NEUTROPHIL is 12.46%.

What about the “PLATELET COUNT” value [3] of the same compound?
The value was 1331 x10E3/uL.

And the “ALANINE AMINOTRANSFERASE” value [3]?
Its value is 31.8 u/L.

What about the ALBUMIN [3] of the same compound?
The ALBUMIN was 3.5 G/DL.

And the “ALKALINE PHOSPHATASE” value [3]?
The value was 221.2 u/L.

And the “ASPARTATE AMINOTRANSFERASE” value [3]?
Its value is 79.4 u/L.

What about the “BLOOD UREA NITROGEN” value [3] of the same compound?
The value was 10.4 mg/dL.

And the CHLORIDE [3]?
The CHLORIDE was 108.8 MEQ/L.

And the CHOLESTEROL [3]?
The CHOLESTEROL was 59.4 mg/dL.

And the “CREATINE PHOSPHOKINASE” value [3]?
Its value is 166.8 u/L.

What about the CREATININE [3] of the same compound?
The CREATININE was 0.52 mg/dL.

And the GLUCOSE [3]?
The GLUCOSE was 110.6 mg/dL.

And the “LACTATE DEHYDROGENASE” value [3]?
The value was 103.8 u/L.

What about the LIPASE [3] of the same compound?
The LIPASE was 24.4 u/L.

What about the PHOSPHORUS [3] of the same compound?
Its PHOSPHORUS is 11.66 mg/dL.

And the POTASSIUM [3]?
Its POTASSIUM is 6.5 MEQ/L.

What about the SODIUM [3] of the same compound?
The SODIUM was 151 MEQ/L.

And the “TOTAL BILIRUBIN” value [3]?
Its value is 0.2 mg/dL.

What about the “TOTAL PROTEIN” value [3] of the same compound?
The value was 6.1 G/DL.

What about the “URIC ACID” value [3] of the same compound?
Its value is 0.72 mg/dL.

And the ABSOLUTE BASOPHIL [4]?
The ABSOLUTE BASOPHIL was 410 cells/µL.

And the ABSOLUTE EOSINOPHIL [4]?
Its ABSOLUTE EOSINOPHIL is 110 cells/µL.

And the ABSOLUTE LYMPHOCYTE [4]?
The ABSOLUTE LYMPHOCYTE was 11200 cells/µL.

What about the ABSOLUTE MONOCYTE [4] of the same compound?
Its ABSOLUTE MONOCYTE is 290 cells/µL.

And the ABSOLUTE SEGMENTED NEUTROPHIL [4]?
The ABSOLUTE SEGMENTED NEUTROPHIL was 3040 cells/µL.

And the BASOPHIL [4]?
Its BASOPHIL is 2.71%.

From ChEMBL document CHEMBL3885881, “DrugMatrix”
